The values below come from PubChem BioAssay (NCI).

Among the test systems are BT-549 breast; HCT-15 colon; OVCAR-4 ovarian; OVCAR-5 ovarian; OVCAR-8 ovarian; SK-MEL-5 melanoma; SK-OV-3 ovarian; TK-10 renal.
Assay in all cases: NCI tumour cell line growth inhibition, 48 h

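Grown in 96-well plates, cells were treated for 48 hours with each compound at five concentrations. Insufficient inhibition: endpoint recorded as highest concentration tested. GI50 marks 50% less growth. The concentration for full growth arrest is given as TGI.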 *1 amine or outer side, *2 acyl side, *3 side chain or, on linkers, in order; H or OH if unused. Where a SMILES comes first, the peptide text is derived from it. CO = O=C([*:1])[*:2]

For the compound `O=C1C=CC(=O)N1c1ccc2c(c1)Cc1cc(NC(=O)C(F)(F)F)ccc1-2`, the TGI is 31.6 µM in the experiment with BT-549 breast; 26.9 µM in the experiment with HCT-15 colon; 31.2 µM in the experiment with OVCAR-4 ovarian; 31.8 µM with OVCAR-5 ovarian; 34.6 µM in the experiment with OVCAR-8 ovarian; above 100 µM with SK-MEL-5 melanoma. Also, the TGI in the experiment on SK-OV-3 ovarian is above 100 µM; in the experiment with TK-10 renal, 7.75 µM.
For `CC1=C([Se]CC(OC(=O)[C@@H](CSSC(C)(C)C)NC(=O)C(C)(C)C)C(=O)NCCCCCC(=O)OCc2ccccc2)C(=O)c2ccccc2C1=O` (some centres not stated), the GI50 in the experiment with BT-549 breast is 1.76 µM; with HCT-15 colon it was 3.2 µM; with OVCAR-4 ovarian, 1.58 µM; with OVCAR-5 ovarian, 2.59 µM; in the experiment with OVCAR-8 ovarian, 2.01 µM; in the experiment on SK-MEL-5 melanoma, 1.89 µM. Further, the GI50 with SK-OV-3 ovarian is 1.56 µM; with TK-10 renal, 2.42 µM. The TGI in the experiment with BT-549 breast came to 3.15 µM; with HCT-15 colon, 12.9 µM; with OVCAR-4 ovarian, 2.97 µM; in the experiment on OVCAR-5 ovarian, 5.44 µM; in the experiment on OVCAR-8 ovarian it was 3.78 µM; with SK-MEL-5 melanoma, 3.34 µM. Moreover, the TGI with SK-OV-3 ovarian was found to be 2.92 µM; in the experiment on TK-10 renal, 4.43 µM.
As to `Cc1cc(S(=O)(=O)/N=C(\N)n2nc(C)c(C)c2C)c(SCc2ccccc2)cc1Cl`, the GI50 in the experiment with BT-549 breast was above 100 µM; in the experiment with HCT-15 colon it was 7.1 µM; in the experiment on OVCAR-4 ovarian it was 19.7 µM; in the experiment with OVCAR-5 ovarian, above 100 µM; in the experiment on OVCAR-8 ovarian it was above 100 µM; with SK-MEL-5 melanoma it was 5.65 µM. For the same compound, the GI50 in the experiment with SK-OV-3 ovarian and in the experiment with TK-10 renal was above 100 µM in each case. For the same compound, the TGI with BT-549 breast, in the experiment with HCT-15 colon, in the experiment with OVCAR-4 ovarian, in the experiment with OVCAR-5 ovarian, with OVCAR-8 ovarian and with SK-MEL-5 melanoma was above 100 µM in each case. The TGI in the experiment with SK-OV-3 ovarian and in the experiment with TK-10 renal was above 100 µM each time.
As for `O=C(c1cccs1)c1c(C(F)(F)F)n([O-])c2cc(C(F)(F)F)ccc2[n+]1=O`, the GI50 in the experiment on BT-549 breast was 0.188 µM; in the experiment on HCT-15 colon, 0.175 µM; in the experiment with OVCAR-5 ovarian, 0.432 µM; in the experiment on OVCAR-8 ovarian, 0.263 µM; with SK-MEL-5 melanoma it was 0.314 µM; with SK-OV-3 ovarian, 0.758 µM. In addition, the GI50 with TK-10 renal is 0.678 µM. Besides, the TGI in the experiment with BT-549 breast is 0.367 µM; in the experiment with HCT-15 colon, 0.349 µM; with OVCAR-5 ovarian it was 1.37 µM; in the experiment on OVCAR-8 ovarian, 1.48 µM; in the experiment with SK-MEL-5 melanoma it was 0.723 µM; with SK-OV-3 ovarian it was 1.87 µM. For the same compound, the TGI in the experiment on TK-10 renal was 1.85 µM.
For `OCC1OC(O)C(N=Cc2ccc3c(c2)OCO3)C(O)C1O` (configuration not stated), the TGI with BT-549 breast, in the experiment with HCT-15 colon, in the experiment with OVCAR-4 ovarian, with OVCAR-5 ovarian, in the experiment on OVCAR-8 ovarian and in the experiment with SK-MEL-5 melanoma was above 100 µM throughout. In addition, the TGI in the experiment on SK-OV-3 ovarian and with TK-10 renal was above 100 µM throughout.
Consider `Cc1ccc(-c2nc3nc(-c4ccc(Cl)cc4)nc(N4CCCNCC4)c3o2)cc1`, for which the GI50 with BT-549 breast is 1.9 µM; in the experiment on HCT-15 colon, 1.57 µM; with OVCAR-4 ovarian, 1.84 µM; in the experiment with OVCAR-5 ovarian it was 1.53 µM; in the experiment on OVCAR-8 ovarian it was 2.15 µM; in the experiment with SK-MEL-5 melanoma it was 1.82 µM. For the same compound, the results for the GI50 with SK-OV-3 ovarian and in the experiment on TK-10 renal were 1.75 µM and 1.78 µM, respectively. Moreover, the TGI is 3.61 µM in the experiment with BT-549 breast; 3.08 µM in the experiment on HCT-15 colon; 3.39 µM in the experiment with OVCAR-4 ovarian; 2.87 µM in the experiment with OVCAR-5 ovarian; 4.77 µM in the experiment with OVCAR-8 ovarian; 3.33 µM in the experiment with SK-MEL-5 melanoma. Further, the TGI in the experiment on SK-OV-3 ovarian turned out to be 3.29 µM; with TK-10 renal, 3.33 µM.
Regarding `CC(C)C(NC(=O)C(CCCN=C(N)N)NC(=O)NC(Cc1ccccc1)C(=O)O)C(=O)NC(C=O)CCCN=C(N)N` (stereo not drawn) ({Phe-CO}-Arg-Val-Arg-aldehyde; configuration not given here), the GI50 with BT-549 breast, in the experiment on HCT-15 colon, with OVCAR-4 ovarian, in the experiment with OVCAR-5 ovarian, in the experiment on OVCAR-8 ovarian and in the experiment with SK-MEL-5 melanoma was above 5 µM throughout. Moreover, the GI50 in the experiment with SK-OV-3 ovarian and in the experiment on TK-10 renal was above 5 µM each time. In addition, the TGI with BT-549 breast, in the experiment with HCT-15 colon, with OVCAR-4 ovarian, in the experiment on OVCAR-5 ovarian, with OVCAR-8 ovarian and in the experiment with SK-MEL-5 melanoma was above 5 µM in each case. Further, the TGI in the experiment on SK-OV-3 ovarian and in the experiment on TK-10 renal was above 5 µM in each case.
In the case of `CCC(=O)Nc1ccc2c(c1)CN1C(=O)c3ccccc3C1=N2`, the GI50 with BT-549 breast, in the experiment with HCT-15 colon, with OVCAR-4 ovarian, with OVCAR-5 ovarian, in the experiment with OVCAR-8 ovarian and in the experiment with SK-MEL-5 melanoma was above 100 µM in each case. The GI50 in the experiment with SK-OV-3 ovarian and in the experiment with TK-10 renal was above 100 µM in each case. Also, the TGI with BT-549 breast, in the experiment on HCT-15 colon, in the experiment on OVCAR-4 ovarian, in the experiment with OVCAR-5 ovarian, in the experiment on OVCAR-8 ovarian and in the experiment on SK-MEL-5 melanoma was above 100 µM each time. The TGI with SK-OV-3 ovarian and in the experiment with TK-10 renal was above 100 µM throughout.
As for `COc1cc(-c2ccc(-[n+]3nc(-c4ccc([N+](=O)[O-])cc4)nn3-c3ccc([N+](=O)[O-])cc3)c(OC)c2)ccc1-[n+]1nc(-c2ccc([N+](=O)[O-])cc2)nn1-c1ccc([N+](=O)[O-])cc1`, the GI50 is 6.21 µM in the experiment with BT-549 breast; 6.17 µM in the experiment on HCT-15 colon; 3.56 µM in the experiment on OVCAR-4 ovarian; 12.4 µM in the experiment with OVCAR-5 ovarian; 12.9 µM in the experiment on OVCAR-8 ovarian; 4.28 µM in the experiment with SK-MEL-5 melanoma. In addition, the GI50 with SK-OV-3 ovarian was 9.08 µM; with TK-10 renal it was 4.61 µM. In addition, the TGI in the experiment on BT-549 breast was 70.8 µM; in the experiment on HCT-15 colon, 49.5 µM; in the experiment with OVCAR-4 ovarian, 55.7 µM; in the experiment with OVCAR-5 ovarian it was 45.5 µM; with OVCAR-8 ovarian it was above 71.5 µM; with SK-MEL-5 melanoma it was 23.6 µM. Further, the TGI with SK-OV-3 ovarian turned out to be 66.3 µM; in the experiment on TK-10 renal it was 17.5 µM.
With `CCC[C@H](Nc1nc(-c2ccc(NC(=O)NCC)c(OC)c2)ncc1C)c1cccnc1`, the GI50 was 0.0413 µM in the experiment on BT-549 breast; 0.112 µM in the experiment on HCT-15 colon; 0.0691 µM in the experiment with OVCAR-4 ovarian; 0.0579 µM with OVCAR-5 ovarian; 0.0369 µM in the experiment with OVCAR-8 ovarian; 0.0273 µM in the experiment with SK-MEL-5 melanoma. The GI50 was 0.0365 µM with SK-OV-3 ovarian and 14.3 µM in the experiment on TK-10 renal. For the same compound, the TGI is 26 µM in the experiment on BT-549 breast; above 42.5 µM in the experiment on HCT-15 colon; 41.8 µM with OVCAR-4 ovarian; above 100 µM with OVCAR-5 ovarian; 14.6 µM with OVCAR-8 ovarian; 0.0912 µM with SK-MEL-5 melanoma. Also, the TGI with SK-OV-3 ovarian amounted to 15 µM; in the experiment with TK-10 renal it was 55.1 µM.
